Measured values taken from a compilation of properties of binary mixtures (doi:10.1007/s11426-012-4655-1).

Experiment: xn = mol fraction of the nth substance listed
Details: 101 kPa

CCCCCCCCn1cc[n+](C)c1.[Cl-] + CCCCCCCCn1cc[n+](C)c1.F[B-](F)(F)F
x1 = 1
Details | electrical conductivity [S/m] | viscosity [mPa·s]
303 K | 0.0021 | –
308 K | 0.0035 | –
318 K | 0.0086 | –
323 K | 0.0129 | –
323.15 K | – | 2043
328 K | 0.0187 | –
333 K | 0.0266 | –
333.15 K | – | 930

CCCCCCCCn1cc[n+](C)c1.F[B-](F)(F)F + CCCCCCCCn1cc[n+](C)c1.[Cl-]
Details | electrical conductivity [S/m] | viscosity [mPa·s]
303 K, x2 = 0.2 | 0.0443 | –
303 K, x2 = 0.4 | 0.0225 | –
303 K, x2 = 0.6 | 0.011 | –
303.15 K, x2 = 0.2 | – | 530
303.15 K, x2 = 0.6 | – | 2399
308 K, x2 = 0 | 0.107 | –
308 K, x2 = 0.2 | 0.0605 | –
308 K, x2 = 0.4 | 0.0317 | –
308 K, x2 = 0.6 | 0.0163 | –
308 K, x2 = 0.8 | 0.0085 | –
308.15 K, x2 = 0 | – | 194
308.15 K, x2 = 0.2 | – | 380
308.15 K, x2 = 0.4 | – | 760
308.15 K, x2 = 0.6 | – | 1565
313 K, x2 = 0 | 0.137 | –
313 K, x2 = 0.2 | 0.0801 | –
313 K, x2 = 0.4 | 0.0438 | –
313 K, x2 = 0.8 | 0.0128 | –
313.15 K, x2 = 0 | – | 149
313.15 K, x2 = 0.2 | – | 279
313.15 K, x2 = 0.4 | – | 530
313.15 K, x2 = 0.6 | – | 1065
313.15 K, x2 = 0.8 | – | 2245
318 K, x2 = 0.4 | 0.0595 | –
318 K, x2 = 0.8 | 0.0186 | –
318.15 K, x2 = 0 | – | 116
318.15 K, x2 = 0.2 | – | 211
318.15 K, x2 = 0.4 | – | 390
318.15 K, x2 = 0.6 | – | 740
323 K, x2 = 0 | 0.215 | –
323 K, x2 = 0.2 | 0.136 | –
323 K, x2 = 0.4 | 0.0791 | –
323 K, x2 = 0.8 | 0.0264 | –
323.15 K, x2 = 0 | – | 92
323.15 K, x2 = 0.2 | – | 162
323.15 K, x2 = 0.4 | – | 287
323.15 K, x2 = 0.6 | – | 520
323.15 K, x2 = 0.8 | – | 1015
328 K, x2 = 0 | 0.263 | –
328 K, x2 = 0.4 | 0.102 | –
328 K, x2 = 0.6 | 0.0607 | –
328 K, x2 = 0.8 | 0.0366 | –
328.15 K, x2 = 0 | – | 74
328.15 K, x2 = 0.2 | – | 127
328.15 K, x2 = 0.4 | – | 216
328.15 K, x2 = 0.6 | – | 370
328.15 K, x2 = 0.8 | – | 710
333 K, x2 = 0.2 | 0.211 | –
333 K, x2 = 0.4 | 0.13 | –
333 K, x2 = 0.6 | 0.0797 | –
333 K, x2 = 0.8 | 0.0514 | –
333.15 K, x2 = 0.2 | – | 100
333.15 K, x2 = 0.4 | – | 166
333.15 K, x2 = 0.6 | – | 279
333.15 K, x2 = 0.8 | – | 500

CCCCCC[n+]1ccn(C)c1.F[P-](F)(F)(F)(F)F + CCCCCC[n+]1ccn(C)c1.[Cl-]
Details | electrical conductivity [S/m] | viscosity [mPa·s]
303 K, x2 = 0 | 0.0747 | –
303 K, x2 = 0.2 | 0.0399 | –
303 K, x2 = 0.4 | 0.0205 | –
303 K, x2 = 0.6 | 0.0104 | –
303 K, x2 = 0.8 | 0.0054 | –
303.15 K, x2 = 0 | – | 500
308 K, x2 = 0 | 0.0993 | –
308 K, x2 = 0.2 | 0.0556 | –
308 K, x2 = 0.6 | 0.0158 | –
308 K, x2 = 0.8 | 0.0086 | –
308.15 K, x2 = 0.2 | – | 680
308.15 K, x2 = 0.4 | – | 1238
313 K, x2 = 0.2 | 0.0751 | –
313 K, x2 = 0.6 | 0.0235 | –
313 K, x2 = 0.8 | 0.0133 | –
313.15 K, x2 = 0 | – | 273
313.15 K, x2 = 0.2 | – | 490
313.15 K, x2 = 0.4 | – | 850
313.15 K, x2 = 0.6 | – | 1501
318 K, x2 = 0 | 0.166 | –
318 K, x2 = 0.2 | 0.1 | –
318 K, x2 = 0.4 | 0.0584 | –
318 K, x2 = 0.8 | 0.0199 | –
318.15 K, x2 = 0 | – | 208
318.15 K, x2 = 0.2 | – | 360
318.15 K, x2 = 0.6 | – | 1014
323 K, x2 = 0 | 0.21 | –
323 K, x2 = 0.2 | 0.131 | –
323 K, x2 = 0.4 | 0.0793 | –
323 K, x2 = 0.6 | 0.0476 | –
323 K, x2 = 0.8 | 0.0291 | –
323.15 K, x2 = 0 | – | 162
323.15 K, x2 = 0.2 | – | 268
323.15 K, x2 = 0.4 | – | 430
323.15 K, x2 = 0.8 | – | 1154
328 K, x2 = 0.2 | 0.166 | –
328 K, x2 = 0.4 | 0.105 | –
328 K, x2 = 0.6 | 0.0648 | –
328.15 K, x2 = 0 | – | 128
328.15 K, x2 = 0.4 | – | 322
328.15 K, x2 = 0.6 | – | 500
328.15 K, x2 = 0.8 | – | 790
333 K, x2 = 0 | 0.319 | –
333 K, x2 = 0.2 | 0.21 | –
333 K, x2 = 0.4 | 0.137 | –
333 K, x2 = 0.6 | 0.0875 | –
333 K, x2 = 0.8 | 0.0582 | –
333.15 K, x2 = 0 | – | 102
333.15 K, x2 = 0.2 | – | 159
333.15 K, x2 = 0.4 | – | 242
333.15 K, x2 = 0.6 | – | 370
333.15 K, x2 = 0.8 | – | 550
